The results in this text go back to ChEMBL document CHEMBL3286089, “Multiparameter optimization in CNS drug discovery: design of pyrimido[4,5-d]azepines as potent 5-hydroxytryptamine 2C (5-HT₂C) receptor agonists with exquisite functional selectivity over 5-HT₂A and 5-HT₂B receptors” (J Med Chem, 2014).

Series [1] can be described thus: Octanol-water partition coefficient, log D of the compound at pH 7.4. The class given is physicochemical.
Series [2] in a line: Intrinsic clearance in human liver microsomes. Conditions: read-out: CLH. Type of series: ADME.
A short description of series [3]: Intrinsic clearance in human hepatocytes assessed as 10^6 cells. Type of series: ADME, cell-based, Hepatocyte. Conditions: read-out: CLH.
Series [4] is described as follows: Dissociation constant, pKa of the compound. Type of series: physicochemical.
Series [5] is described as follows: Intrinsic clearance in rat liver microsomes. Type of series: ADME. Conditions: read-out: CLH. Background: Liver microsomes are vesicles of endoplasmic reticulum, rich in cytochrome P450 enzymes.
A short description of series [6]: Intrinsic clearance in dog liver microsomes. The class given is ADME, Canis lupus familiaris.

For orientation: logD means the decadic logarithm of the distribution of all forms, ionised or not, between an organic phase and buffer at a given pH. On to `CNc1nc(Cc2ccccc2)nc2c1CCNC[C@H]2C`, for which, in series [1], the logD amounted to 0.7.
Usually pKa stands for the negative logarithm of the acid dissociation constant. Consider `CNc1nc(Cc2ccccc2)nc2c1CCNC[C@@H]2C`, for which the microsomal CLint in series [2] is 16 µL/min/mg; in series [5] it was 329 µL/min/mg; in series [6] it was 114 µL/min/mg. Further, the hepatocyte CLint in series [3] was determined as 3.4 µL/min/1e6 cells. Further, the pKa in series [4] stood at 8.6. In series [1], this molecule came in with a logD of 0.7.
As for `Nc1nc(Cc2ccccc2)nc2c1CCNCC2`, the logD in series [1] is 0.1.
